In US20140243302A1, “BRIDGED BICYCLIC COMPOUNDS FOR THE TREATMENT OF BACTERIAL INFECTIONS” (priority 2011, published 2014):
≈ marks a conversion by molar mass, not a printed value.

Each compound was assayed on Staphylococcus aureus Smith (assay: MIC assay, modified agar dilution (CLSI), S. aureus Smith). Details: Staphylococcus aureus, agar dilution, 35° C., 16-20 hr; lowest concentration that completely inhibited growth; read-out: S_aureus_Smith_WT_MIC.
Assay type: cell-based
Procedure: The potency of antibacterial agents was measured using the Minimal Inhibitory Concentration (MIC) assay. The assay measures the ability of test agents to inhibit the growth of bacteria on agar-containing medium.
The bacterial test strains used were exemplified by Staphylococcus aureus Smith, Enterococcus faecium A2373, Streptococcus pneumoniae IID554, and Escherichia coli ATCC 25922. All strains were maintained as frozen stocks held at −80° C. in skim milk. Other bacterial test strains are well known to those skilled in the art and can be used for testing.
Mueller Hinton Agar (MHA BBL; Becton Dickinson and Company, Sparks, Md.) was used as the medium. MHA was supplemented with 5% defibrinated horse blood (DHB; Nippon Biotest Laboratories inc.) to support the growth of S. pneumoniae and E. faecium.
MIC values were determined using a modified agar dilution procedure described by the Clinical and Laboratory Standards Institute (CLSI; Methods for Dilution Antimicrobial Susceptibility Tests for Bacteria That Grow Aerobically; Approved Standard—Eighth Edition. CLSI document M07-A8 [ISBN 1-56238-689-1]. Clinical and Laboratory Standards Institute, 940 West Valley Road, Suite 1400, Wayne, Pa. 19087-1898 USA, 2009).
Stock solutions (6.4 mgmL) of test compounds were prepared in 100% ultrapure dimethyl sulfoxide (DMSO; source) on the day of the assay. Subsequent serial dilutions were performed to generate solutions with concentrations ranging from 6.4 to 0.0002 mgmL in 100% DMSO.
Agar medium containing test compound was prepared by adding the dilutions of antimicrobial solution to molten MHA at a temperature of 45-50° C. The agar and antimicrobial solution were mixed thoroughly, poured into petri dishes, and allowed to solidify at room temperature. The final concentration of test compounds in the MHA medium ranged from 128 to 0.001 μg/mL with two-fold dilutions. MHA plates lacking antibacterial compound were used for growth controls.
Prior to susceptibility testing, the bacterial isolates were removed from frozen storage, thawed at room temperature, sub-cultured to MHA medium and incubated overnight at 35° C. S. pneumoniae and E. faecium were subcultured on MHA supplemented with 5% DHB at 35° C. with […]. Colonies from each plate were suspended in normal saline. This suspension was adjusted to the turbidity of a 0.5 McFarland standard, 1-2×10^8 colony forming units (CFU) per mL, and diluted 100-fold to 1-2×10^6 CFUmL.
Suspensions of bacterial cultures were applied to the surface of MHA plates containing test compound as well as to a growth control plate lacking test compound using an inoculum-replicating device with 4 mm pins. The replicating device applied 5 uL of the bacterial suspension such that each spot contained approx. 1×10^4 CFU. Plates were dried for about 40 min and incubated at 35° C. for 16-20 hr prior to scoring.

MIC [µg/mL] | Structure (SMILES)
0.031 (≈ 0.0624 µM) | COc1ccc2ncc(F)c(CC(O)C34CCC(NCc5cc6c(cn5)OCCO6)(CC3)CO4)c2n1 (single isomer, unassigned) [Example 132, 1-(4-((2,3-Dihydro-[1,4]dioxino[2,3-c]pyridin-7-yl)methylamino)-2-oxabicyclo[2.2.2]octan-1-yl)-2-(3-fluoro-6-methoxy-1,5-naphthyridin-4-yl)ethanol]
1 (≈ 1.93 µM) | COc1ccc2ncc(F)c(CC(O)C34CCC(NCc5cc6ccccc6n(C)c5=O)(CC3)CO4)c2n1 (single isomer, unassigned) [Example 133, 3-((1-(2-(3-Fluoro-6-methoxy-1,5-naphthyridin-4-yl)-1-hydroxyethyl)-2-oxabicyclo[2.2.2]octan-4-ylamino)methyl)-1-methylquinolin-2(1H)-one]
0.063 (≈ 0.124 µM) | COc1ccc2ncc(F)c(CC(O)C34CCC(NCc5cc6c(cn5)OCC(=O)N6)(CC3)CO4)c2n1 (single isomer, unassigned) [Example 134, 7-((1-(2-(3-Fluoro-6-methoxy-1,5-naphthyridin-4-yl)-1-hydroxyethyl)-2-oxabicyclo[2.2.2]octan-4-ylamino)methyl)-1H-pyrido[3,4-b][1,4]oxazin-2(3H)-one]
0.031 (≈ 0.0588 µM) | COc1ccc2ncc(F)c(CC(O)C34CCC(NCc5nc6c(cc5F)OCC(=O)N6)(CC3)CO4)c2n1 (single isomer, unassigned) [Example 135, 7-Fluoro-6-((1-(2-(3-fluoro-6-methoxy-1,5-naphthyridin-4-yl)-1-hydroxyethyl)-2-oxabicyclo[2.2.2]octan-4-ylamino)methyl)-2H-pyrido[3,2-b][1,4]oxazin-3(4H)-one]
0.75 | COc1ccc2ncc(F)c(C[C@@H](O)C34CCC(NCc5cc6c(cn5)OCCO6)(CC3)CC4)c2n1.Cl (single isomer, unassigned) [Example 200]
0.06 | COc1ccc2ncc(F)c(C[C@H](O)C34CCC(NCc5cc6c(cn5)OCCO6)(CC3)CC4)c2n1.Cl (single isomer, unassigned) [Example 201]
2 (≈ 4.09 µM) | N#Cc1cnc2ccc(=O)n(CC(O)C34CCC(NCc5cc6c(cn5)OCCO6)(CC3)CO4)c2c1 (single isomer, unassigned; enantiomer a) [Example 159, 5-(2-(4-((2,3-Dihydro-[1,4]dioxino[2,3-c]pyridin-7-yl)methylamino)-2-oxabicyclo[2.2.2]octan-1-yl)-2-hydroxyethyl)-6-oxo-5,6-dihydro-1,5-naphthyridine-3-carbonitrile (Enantiomer A)]
0.25 (≈ 0.497 µM) | N#Cc1cnc2ccc(=O)n(CC(O)C34CCC(NCc5ccc6c(n5)NC(=O)CO6)(CC3)CO4)c2c1 (single isomer, unassigned; enantiomer a) [Example 160, 5-(2-Hydroxy-2-(4-((3-oxo-3,4-dihydro-2H-pyrido[3,2-b][1,4]oxazin-6-yl)methylamino)-2-oxabicyclo[2.2.2]octan-1-yl)ethyl)-6-oxo-5,6-dihydro-1,5-naphthyridine-3-carbonitrile (Enantiomer A)]
0.063 (≈ 0.106 µM) | COC(=O)C1CC1COc1ccc2ncc(F)c(CCC34CCC(NCc5ccc6c(n5)NC(=O)CO6)(CC3)CO4)c2n1 (single isomer, unassigned; enantiomer a) [Example 227, Methyl 247-Fluoro-8-(2-(4-((3-oxo-3,4-dihydro-2H-pyrido[3,2-b][1,4]oxazin-6-yl)methylamino)-2-oxabicyclo[2.2.2]octan-1-yl)ethyl)-1,5-naphthyridin-2-yloxy)methyl)cyclopropanecarboxylate (Enantiomer A)]
0.25 (≈ 0.423 µM) | COC(=O)[C@H]1C[C@H]1COc1ccc2ncc(F)c(CCC34CCC(NCc5ccc6c(n5)NC(=O)CO6)(CC3)CO4)c2n1 (single isomer, unassigned; enantiomer b) [Example 228, Methyl 2-((7-Fluoro-8-(2-(4-((3-oxo-3,4-dihydro-2H-pyrido[3,2-b][1,4]oxazin-6-yl)methylamino)-2-oxabicyclo[2.2.2]octan-1-yl)ethyl)-1,5-naphthyridin-2-yloxy)methyl)cyclopropanecarboxylate (Enantiomer B)]
0.031 | COc1ccc2nccc(CCC34CCC(NCc5ccc6c(n5)NC(=O)CO6)(CC3)CC4)c2n1.Cl [Example 1, 6-((4-(2-(6-Methoxy-1,5-naphthyridin-4-yl)ethyl)bicyclo[2.2.2]octan-1-ylamino)methyl)-2H-pyrido[3,2-b][1,4]oxazin-3(4H)-one Hydrochloride]
0.125 (≈ 0.229 µM) | CCOC(=O)c1cnc2ccc(OC)nc2c1CCC12CCC(NCc3ccc4c(n3)NC(=O)CO4)(CC1)CC2 [Example 2, Ethyl 6-Methoxy-4-(2-(4-((3-oxo-3,4-dihydro-2H-pyrido[3,2-b][1,4]oxazin-6-yl)methylamino)bicyclo[2.2.2]octan-1-yl)ethyl)-1,5-naphthyridine-3-carboxylate]
0.25 | COc1ccc2ncc(N)c(CCC34CCC(NCc5ccc6c(n5)NC(=O)CO6)(CC3)CC4)c2n1.Cl [Example 3, 6-((4-(2-(3-Amino-6-methoxy-1,5-naphthyridin-4-yl)ethyl)bicyclo[2.2.2]octan-1-ylamino)methyl)-2H-pyrido[3,2-b][1,4]oxazin-3(4H)-one Hydrochloride]
0.016 | COc1ccc2ncc(F)c(CCC34CCC(NCc5ccc6c(n5)NC(=O)CO6)(CC3)CC4)c2n1.Cl [Example 4, 6-((4-(2-(3-Fluoro-6-methoxy-1,5-naphthyridin-4-yl)ethyl)bicyclo[2.2.2]octan-1-ylamino)methyl)-2H-pyrido[3,2-b][1,4]oxazin-3(4H)-one Hydrochloride]

Same assay, conditions: agar dilution, 35° C., 16-20 hr; lowest concentration that completely inhibited growth

Structure (SMILES) | S_aureus_Smith_WT_MIC [µg/mL]
O=C1COc2ccc(CNC34CCC(C(O)Cn5c(=O)ccc6ncc(F)cc65)(CC3)OC4)nc2N1 (single isomer, unassigned) [Example 55b, 6-((1-(2-(7-fluoro-2-oxo-1,5-naphthyridin-1(2H)-yl)-1-hydroxyethyl)-2-oxabicyclo[2.2.2]octan-4-ylamino)methyl)-2H-pyrido[3,2-b][1,4]oxazin-3(4H)-one] | 0.250
COc1ccc2ncc(F)c(C(C)C(O)C34CCC(NCc5ccc6c(n5)NC(=O)CO6)(CC3)CO4)c2n1 (single isomer, unassigned) [Example 151a, 6-((1-(2-(3-Fluoro-6-methoxy-1,5-naphthyridin-4-yl)-1-hydroxypropyl)-2-oxabicyclo[2.2.2]octan-4-ylamino)methyl)-2H-pyrido[3,2-b][1,4]oxazin-3(4H)-one] | 32.0
COc1ccc2ncc(F)c(C(C)C(O)C34CCC(NCc5ccc6c(n5)NC(=O)CO6)(CC3)CO4)c2n1 (single isomer, unassigned) [Example 151b, 6-((1-(2-(3-Fluoro-6-methoxy-1,5-naphthyridin-4-yl)-1-hydroxypropyl)-2-oxabicyclo[2.2.2]octan-4-ylamino)methyl)-2H-pyrido[3,2-b][1,4]oxazin-3(4H)-one] | 4.00
N#Cc1cnc2ccc(=O)n(CC(O)C34CCC(NCc5cc6c(cn5)OCCO6)(CC3)CO4)c2c1 (single isomer, unassigned; enantiomer b) [Example 161, 5-(2-(4-((2,3-Dihydro-[1,4]dioxino[2,3-c]pyridin-7-yl)methylamino)-2-oxabicyclo[2.2.2]octan-1-yl)-2-hydroxyethyl)-6-oxo-5,6-dihydro-1,5-naphthyridine-3-carbonitrile (Enantiomer B)] | 2.00

Same assay, conditions: agar dilution, 35° C., 16-20 hr; lowest concentration that completely inhibited growth; Hydrochloride

Structure (SMILES) | S_aureus_Smith_WT_MIC [µg/mL]
COc1ccc2ncc(F)c(CCC34CCC(NCc5ccc6c(n5)NC(=O)C(C)O6)(CC3)CO4)c2n1.Cl (single isomer, unassigned) [Example 100a, 6-((1-(2-(3-Fluoro-6-methoxy-1,5-naphthyridin-4-yl)ethyl)-2-oxabicyclo[2.2.2]octan-4-ylamino)methyl)-2-methyl-2H-pyrido[3,2-b][1,4]oxazin-3(4H)-one Hydrochloride] | 0.250
COc1ccc2ncc(F)c(CCC34CCC(NCc5ccc6c(n5)NC(=O)C(C)O6)(CC3)CO4)c2n1.Cl (single isomer, unassigned) [Example 100b, 6-((1-(2-(3-Fluoro-6-methoxy-1,5-naphthyridin-4-yl)ethyl)-2-oxabicyclo[2.2.2]octan-4-ylamino)methyl)-2-methyl-2H-pyrido[3,2-b][1,4]oxazin-3(4H)-one Hydrochloride] | 0.0630
